Experimental data taken from publication PMC4145321, “Synthesis and Biological Evaluation of Novel 3-Alkylpyridine Marine Alkaloid Analogs with Promising Anticancer Activity” (Marine Drugs, 2014).
“Also recorded” adds a separate entry of the source.

Columns and labels:
[1] = system: HeLa cells (cervix adenocarcinoma); assay: MTT cytotoxicity assay, HeLa; format: cell-based, human; conditions: for IC50: Homo sapiens, HeLa, MTT, 48 h incubation, triplicate, average ± SD; for Selectivity Index (SI) HeLa: ratio of IC50 WI-26VA4 and IC50 HeLa
Protocol: (§1) The cytotoxicity of the compounds was assessed with the human cell lines, HeLa (cervix adenocarcinoma ATCC# CCl-2), RKO-AS-45-1 (colon carcinoma ATCC# CRL-2579) and WI-26 VA4 (fibroblast ATCC# CCL-95.1) using the MTT (3-(4,5-dimethylthiazol-2-yl)-2,5-diphenyltetrazolium bromide) (Sigma, St. Louis, MO, USA) colorimetric method. Briefly, the cells were plated in 96-well plates (1 × 10^5 cells/well) and incubated for 24 h at 37 °C in a humidified atmosphere with 5% CO2. After 24 h, the wells were washed with culture medium (RPMI +10% inactivated fetal calf serum + 2 mM L-glutamine) and incubated with the compounds at various concentrations (0.05 to 500 μM). After 48 h of incubation, the plates were treated with MTT. The colorimetric measurement was performed at 550 nm using the microplate reader, Spectramax M5e (Molecular Devices, Sunnyvale, CA, USA). Cytotoxicity was scored as the percent reduction in absorbance versus untreated control cultures. All experiments were performed in triplicate. The results are expressed as the mean of the IC50 (the lethal drug concentration that reduced cell viability by 50%). The IC50 values were calculated using OriginPro 8.0 (OriginLab Corporation, Northampton, MA, USA) software. A selectivity index (SI), corresponding to the ratio between the cytotoxic activities of each compound against the HeLa and RKO-AS-45-1 cell lines and the cytotoxicity against WI-26 VA4, was calculated as follows: […]

[2] = system: RKO-AS-45-1 cells (colon carcinoma); assay: MTT cytotoxicity assay, RKO-AS-45-1; format: cell-based, human; conditions: for IC50: Homo sapiens, RKOAS451, MTT, 48 h incubation, triplicate, average ± SD; for Selectivity Index (SI) RKO AS-45-1: ratio of IC50 WI-26VA4 and IC50 RKO-AS-45-1
Protocol: as §1

RKO-AS-45-1 cells [3] = assay: Frequency of binucleation (mitotic index); format: cell-based, human; conditions: 300 cells counted
Protocol: The influence of the synthetic alkaloids on cell division was assessed by calculating the frequency of binucleation in RKO-AS-45-1 cells. The same slides prepared for the micronucleus assay were used, and 300 cells with a well-preserved cytoplasm were counted using fluorescence microscopy, as described above. The frequency of binucleated cells was calculated as the proportion (percentage) of cells undergoing complete cell division after exposure to digoxin and controls.

HeLa cells = assay: TUNEL apoptosis assay, HeLa; format: cell-based, human; conditions: 48 h; 4c at 19.1 μM, 5c at 8.5 μM
Protocol: (§2) Apoptotic cell death was measured using the APO-BrdU TUNEL assay kit (Invitrogen, Carlsbad, CA, USA). Briefly, the effect of Compounds 4c and 5c and etoposide on DNA fragmentation was determined using Hela and RKO-AS-45-1 cells. The cells were incubated with the compounds for 48 h, as described above, and fixed using a solution of ice-cold 70% ethanol. The cells were then counterstained with 5-bromo-2′-deoxyuridine 5′-triphosphate (BrdUTP) in the presence of terminal deoxynucleotidyl transferase (TdT) and stained with an anti-BrdU monoclonal antibody-PRB-1 Alexa Fluor 488 conjugate, as previously described. The loaded cells were visualized by fluorescence microscopy using a Zeiss Axiovert 200 (Carl Zeiss, Oberkochen, Germany).

RKO-AS-45-1 cells [4] = assay: Cytokinesis-block micronucleus assay; format: cell-based, human; conditions: 3 h treatment
Protocol: To assess the potential of the synthetic alkaloids to induce DNA damage (chromosomal mutations) in vitro, the cytokinesis-block micronucleus assay was performed in the RKO-AS-45-1 cell line. The procedures were developed as described by Fenech, with adaptations. Briefly, the cells were seeded in 24-well plates (2.5 × 10^5 cells/well) and maintained at 37 °C in a humid atmosphere with 5% CO2. After 24 h, the cells were washed twice with PBS, and the treatments were performed in culture media without serum for three hours. Each treatment was performed in triplicate. The negative control group was treated with PBS, and a positive control group was established with the treatment of the cells with methyl methanesulfonate (MMS—400 μM).
After completing treatments with three concentrations lower than the IC50 of Compounds 4c (4.8, 9.6 and 14.3 μM) and 5c (5.9, 11.8, and 17.8 μM) diluted in culture media, the cells were washed twice with PBS, trypsinized and centrifuged for 5 min at 1200 rpm. The pellet was then resuspended in chilled hypotonic solution (1% sodium citrate) together with one drop of 1% formaldehyde and carefully homogenized with a Pasteur pipette. This cell suspension was centrifuged for 5 min at 1200 rpm and resuspended in 5 mL of fixative, methanol/acetic acid (3:1 v/v). Next, the tubes were centrifuged for 5 min, and the supernatant was discarded; the cell suspension was spread onto slides previously cleaned and covered with a film of chilled distilled water.
At the moment of cytogenetic analysis, the slides were stained with DAPI (4′,6-diamidino-2-phenylindole) diluted in phosphate buffer (0.06 M Na2HPO4 and 0.06 M KH2PO4, pH 6.8) for 2 min, washed with distilled water and analyzed under a fluorescent microscope (Zeiss, Axioscope) with an excitation filter of 365 nm and a barrier filter of 445/450 nm. Two thousands cells with a well-preserved cytoplasm were analyzed for each treatment in a blind test. Cells containing 1–3 micronuclei were scored. The criterion for the identification of MNs was according to a previous report. […]

RKO-AS-45-1 cells [5] = assay: TUNEL apoptosis assay, RKO-AS-45-1; format: cell-based, human; conditions: 48 h; 4c at 5.1 μM, 5c at 19.1 μM
Protocol: as §2

[6] = system: WI-26VA4 cells (lung fibroblast, non-cancerous); assay: MTT cytotoxicity assay, WI-26VA4; format: cell-based; conditions: Homo sapiens, WI26VA4, 48 h incubation, triplicate, average ± SD
Protocol: The cytotoxicity of the compounds was assessed with the human cell lines, HeLa (cervix adenocarcinoma ATCC# CCl-2), RKO-AS-45-1 (colon carcinoma ATCC# CRL-2579) and WI-26 VA4 (fibroblast ATCC# CCL-95.1) using the MTT (3-(4,5-dimethylthiazol-2-yl)-2,5-diphenyltetrazolium bromide) (Sigma, St. Louis, MO, USA) colorimetric method. Briefly, the cells were plated in 96-well plates (1 × 10^5 cells/well) and incubated for 24 h at 37 °C in a humidified atmosphere with 5% CO2. After 24 h, the wells were washed with culture medium (RPMI +10% inactivated fetal calf serum + 2 mM L-glutamine) and incubated with the compounds at various concentrations (0.05 to 500 μM). After 48 h of incubation, the plates were treated with MTT. The colorimetric measurement was performed at 550 nm using the microplate reader, Spectramax M5e (Molecular Devices, Sunnyvale, CA, USA). Cytotoxicity was scored as the percent reduction in absorbance versus untreated control cultures. All experiments were performed in triplicate. […] The IC50 values were calculated using OriginPro 8.0 (OriginLab Corporation, Northampton, MA, USA) software. A selectivity index (SI), corresponding to the ratio between the cytotoxic activities of each compound against the HeLa and RKO-AS-45-1 cell lines and the cytotoxicity against WI-26 VA4, was calculated as follows: SI = […].

[7] = system: actin cytoskeleton of RKO-AS-45-1 cells; assay: Actin polymerization by fluorescence microscopy; format: cell-based, human; conditions: 19.1 μM, 24 h, phalloidin Alexa Fluor 488
Protocol: The control with non-treated cells was included in parallel. After 24 h, the cells were rinsed in phosphate-buffered saline (PBS) for 3 min, fixed in paraformaldehyde (#15,812-7, Sigma) at 4% in PBS for 1 h and permeabilized with 0.1% Triton X-100 (#17-1315-01, Plusone, GE Healthcare, Fairfield, CA, USA) in PBS for 10 min. The RKO-AS-45-1 cells were labeled with Phalloidin Alexa Fluor® 488 (#A12379, Molecular Probes, Eugene, OR, USA), and the nuclei were counterstained with 4,6-diaminidino-2-phenylindole (DAPI; Molecular Probes, #D1306) according to the manufacturer’s instructions. Image acquisition was performed using an AxioVert 200 microscope (Carl Zeiss, Oberkochen, Germany).

| Compound | IC50 [1] [µM] | IC50 [2] [µM] | Selectivity Index (SI) HeLa [1] | Selectivity Index (SI) RKO AS-45-1 [2] | also measured |
| --- | --- | --- | --- | --- | --- |
| COc1cc([C@@H]2c3cc4c(cc3[C@@H](O[C@@H]3O[C@@H]5CO[C@@H](C)O[C@H]5[C@H](O)[C@H]3O)[C@H]3COC(=O)[C@H]23)OCO4)cc(OC)c1O [Etoposide, reference compound] | 2.7 ± 0.4 | 1.4 ± 0.6 |  |  |  |
| c1cncc(CCCOCCCCCCOC2CCCCO2)c1 (stereo not shown) [Compound 4a, 1-[3-(pyridin-3-yl)propoxy]-6-(oxan-2-yloxy)hexane] | > 300 | > 300 |  |  |  |
| OCCCCCCCCCCCCOCCCc1cccnc1 [Compound 5d, 12-[3-(pyridin-3-yl)propoxy]dodecan-1-ol] | 8.8 ± 1.9 | 132 ± 16.8 | 3.87 | 0.25 |  |
| c1cncc(CCCOCCCCCCCCCCOC2CCCCO2)c1 (stereo not shown) [Compound 4c, 1-[3-(pyridin-3-yl)propoxy]-10-(oxan-2-yloxy)decane] | 4 ± 0.8 | 5.1 ± 1.1 | 1.60 | 1.25 | Frequency of binucleation vs negative control (RKO-AS-45-1 cells [3]; two highest concentrations assessed): reduced the binucleation frequency; Apoptosis induction (TUNEL) (HeLa cells): promoted apoptosis; Micronucleus frequency vs control (RKO-AS-45-1 cells [4]; 2.5 and 4.0 μM (two highest concentrations), 2000 binucleated cells, p < 0.05): significantly higher than that detected in the control; also recorded: statistically higher than that identified in the control group; Micronucleus frequency vs control (RKO-AS-45-1 cells [4]; lower concentrations evaluated): did not induce significant alterations in the MN frequency; Apoptosis induction (TUNEL) (RKO-AS-45-1 cells [5]): promoted apoptosis |
| c1cncc(CCCOCCCCCCCCOC2CCCCO2)c1 (stereo not shown) [Compound 4b, 1-[3-(pyridin-3-yl)propoxy]-8-(oxan-2-yloxy)octane] | 8.1 ± 2.7 | 23.7 ± 1.7 | 4.66 | 1.59 |  |
| OCCCCCCOCCCc1cccnc1 [Compound 5a, 6-[3-(pyridin-3-yl)propoxy]hexan-1-ol] | > 400 | > 400 |  |  |  |
| OCCCCCCCCOCCCc1cccnc1 [Compound 5b, 8-[3-(pyridin-3-yl)propoxy]octan-1-ol] | 192 ± 10.1 | > 300 | 0.87 |  | IC50 [6]: 167 ± 10.5 µM |
| c1cncc(CCCOCCCCCCCCCCCCOC2CCCCO2)c1 (stereo not shown) [Compound 4d, 1-[3-(pyridin-3-yl)propoxy]-12-(oxan-2-yloxy)dodecane] | 9.4 ± 0.7 | 3.2 ± 1.7 | 1.20 | 3.53 |  |
| OCCCCCCCCCCOCCCc1cccnc1 [Compound 5c, 10-[3-(pyridin-3-yl)propoxy]decan-1-ol] | 8.5 ± 2.4 | 19.1 ± 4.4 | 11.65 | 5.18 | Frequency of binucleation / proliferation rate vs control (RKO-AS-45-1 cells [3]; highest concentration assessed, p < 0.05): reduced the proliferation rate; also recorded: induced a reduction in the proliferation rate; Apoptosis induction (TUNEL) (HeLa cells): promoted apoptosis; Micronucleus frequency vs control (RKO-AS-45-1 cells [4]; 17.8 μM (highest concentration), 2000 binucleated cells, p < 0.05): significantly higher than that found in the control; also recorded: statistically higher than that identified in the control group; Effect on actin cytoskeleton / actin polymerization [7]: actin polymerization is altered; also recorded: accentuated alteration of the cellular actin network; Apoptosis induction (TUNEL) (RKO-AS-45-1 cells [5]): promoted apoptosis |
